The subject of data set [1] is SNU-5 CDX xenografts. In words: In vivo efficacy study, CDX model. Also noted: species or system BALB/cA nude mice. On the procedure:
(§1) Human tumor xenografts were established in female BALB/cA nude mice (5-6 weeks old) by administering the SNU-5 and MKN-45 cells, which have high MET expression levels. For efficacy studies in patient-derived tumor xenograft (PDX) mouse models, MET-overexpressing GA0046 and GA3121 tumors (obtained from Crownbio, CA, USA) were established by directly implanting surgical tissues into immunodeficient mice. […] The subcutaneous tumor size and body weight were measured twice weekly. The tumor volumes were determined by measuring two perpendicular diameters with calipers and calculated as (length × width^2)/2.

For data set [2], the system named is MKN-45 CDX xenografts. Kind of data set: In vivo efficacy study, CDX model. Details: species or system BALB/cA nude mice. On the procedure: as §1
Data set [3] addresses Fer (Homo sapiens, UniProt P16591). In words: Kinase inhibition assay (LANCE or HTRF). Format: biochemical. The following applies: ATP at Km.
Description: (§2) The IC50 values were determined by measuring phosphorylation of peptide substrate poly at ATP concentrations at the Km.
For data set [4], the system named is MKN74. Kind of data set: Cell proliferation assay (CellTiter-Glo, 72 hours). Format: cell-based. The following applies: Homo sapiens, MKN-74, read-out: IC50 anti-proliferative. For orientation: Cellular ATP, detected with luciferase, serves as a proxy for viable cell number.
Data set [5] deals with SNU-601. Kind of data set: Cell proliferation assay (CellTiter-Glo, 72 hours). Format: cell-based. Conditions: Homo sapiens, read-out: IC50 anti-proliferative.
Description: These cell lines were obtained from American Type Culture Collection (ATCC), Japanese Collection of Research Bioresources (JCRB), Shanghai Institutes of Biological Sciences, CAS (SIBS), Korean Cell Line Bank (KCLB) or National Institutes of Health (NIH). […] Cell viability was measured after 72 hours using a CellTiter-Glo Luminescent Cell Viability Assay Kit (Promega, WI, USA) according to the manufacturer’s instructions.
Data set [6] has as its system NUGC3. Kind of data set: Cell proliferation assay (CellTiter-Glo, 72 hours). It counts as cell-based. Conditions: Homo sapiens, NUGC-3, read-out: IC50 anti-proliferative.
Description: (§3) Human gastric tumor cell lines with high MET expression levels, namely, the GTL-16, MKN45, SNU638, Hs746T, SNU-620, and SNU-5 cell lines, were used in the assay. These cell lines were obtained from American Type Culture Collection (ATCC), Japanese Collection of Research Bioresources (JCRB), Shanghai Institutes of Biological Sciences, CAS (SIBS), Korean Cell Line Bank (KCLB) or National Institutes of Health (NIH). […] Cell viability was measured after 72 hours using a CellTiter-Glo Luminescent Cell Viability Assay Kit (Promega, WI, USA) according to the manufacturer’s instructions.
Data set [7] has as its target Musk (Homo sapiens, UniProt O15146). Kind of data set: Kinase inhibition assay (LANCE or HTRF). It counts as biochemical. Conditions: ATP at Km. For orientation: TR-FRET usually uses a lanthanide donor and a delayed reading to cut background.
Description: as §2
Data set [8] deals with HIPK4 (Homo sapiens, UniProt Q8NE63). Kind of data set: Kinase inhibition assay (LANCE or HTRF). It counts as biochemical. The following applies: ATP at Km.
Description: as §2
Data set [9] has as its target FLT3 (Homo sapiens, UniProt P36888). In words: Kinase inhibition assay (LANCE or HTRF). Format: biochemical. The following applies: ATP at Km.
Description: as §2
The target of data set [10] is Tyro3 (Homo sapiens, UniProt Q06418). In words: Kinase inhibition assay (LANCE or HTRF). The following applies: ATP at Km. It counts as biochemical.
Description: as §2
The target in data set [11] is Yes (Homo sapiens, UniProt P07947). In words: Kinase inhibition assay (LANCE or HTRF). It counts as biochemical. Conditions: ATP at Km.
Description: as §2
The nature of data set [12]: Phase I trial: clinical pharmacokinetics in plasma. Format: in vivo, human. On the procedure: A clinical pharmacokinetic study of CT053PTSA was performed for both single doses and multiple doses. Blood samples were collected from each subject at prespecified times before and after single-dose administration (systemic blood samples: before treatment and 0.5, 1, 2, 3, 4, 5, 8, 12, 24, 36, 48, 72, 120 and 168 hours after treatment) and during multiple dosing (cycle 1 before treatment on Days 8, 15 and 22, as well as systemic blood samples on Day 28). […]
Statistical analysis of CT053-treated tumors versus vehicle-treated tumors or versus nontreated tumors was performed by repeated-measures ANOVA. The data from the tumor xenograft models were expressed as the means ± standard error of the mean (SEM) and were plotted as a function of time. Noncompartmental pharmacokinetic analysis was performed using Phoenix WinNonlin Version 6.2.1 (Certara Inc., NJ, USA). Demographics and laboratory results of all the subjects were summarized using descriptive statistics. The pharmacokinetic parameters Tmax and T1/2 were shown as the median (min, max) and mean ± SD, respectively. A two-sided P < 0.05 was considered to indicate statistical significance. Statistical analysis was performed by using GraphPad Prism 5.0 (GraphPad Prism, RRID : SCR_002798) and SPSS software version 19.0 (SPSS, RRID : SCR_002865).

The test system of data set [13] is SNU-16. In words: Cell proliferation assay (CellTiter-Glo, 72 hours). Conditions: Homo sapiens, read-out: IC50 anti-proliferative. It counts as cell-based.
Description: as §3
Setting [14] is: 3 mg/kg once per day oral gavage.

As a reminder, the TGI is how far tumour growth fell short of that in controls. Read a high TGI as much slowing of growth. As usually defined, the IC50 is the concentration that gives 50% inhibition.

Bounds are passed on as bounds.

Chain of Musk (O15146 24-869): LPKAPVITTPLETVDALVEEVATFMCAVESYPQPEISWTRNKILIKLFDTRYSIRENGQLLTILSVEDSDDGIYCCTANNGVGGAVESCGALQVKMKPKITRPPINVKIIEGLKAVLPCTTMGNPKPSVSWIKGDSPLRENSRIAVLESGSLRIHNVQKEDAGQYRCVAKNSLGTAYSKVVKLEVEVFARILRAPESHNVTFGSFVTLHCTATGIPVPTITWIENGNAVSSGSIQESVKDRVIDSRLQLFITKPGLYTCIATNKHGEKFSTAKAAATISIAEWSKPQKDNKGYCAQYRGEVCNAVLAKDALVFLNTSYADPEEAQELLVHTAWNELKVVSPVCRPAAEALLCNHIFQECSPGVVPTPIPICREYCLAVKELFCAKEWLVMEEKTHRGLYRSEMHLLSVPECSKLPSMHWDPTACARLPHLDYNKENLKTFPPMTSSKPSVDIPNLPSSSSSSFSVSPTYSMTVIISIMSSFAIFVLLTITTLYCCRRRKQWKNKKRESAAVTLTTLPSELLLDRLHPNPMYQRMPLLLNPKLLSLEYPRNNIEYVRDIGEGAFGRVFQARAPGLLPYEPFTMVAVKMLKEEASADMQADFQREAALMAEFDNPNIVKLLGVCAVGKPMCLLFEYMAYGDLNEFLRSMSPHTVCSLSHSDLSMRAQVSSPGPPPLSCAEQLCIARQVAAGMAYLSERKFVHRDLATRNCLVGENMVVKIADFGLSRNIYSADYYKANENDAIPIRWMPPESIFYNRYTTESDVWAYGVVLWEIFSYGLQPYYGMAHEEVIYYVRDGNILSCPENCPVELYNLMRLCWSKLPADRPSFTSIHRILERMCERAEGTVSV
Chain of HIPK4 (Q8NE63 whole entry): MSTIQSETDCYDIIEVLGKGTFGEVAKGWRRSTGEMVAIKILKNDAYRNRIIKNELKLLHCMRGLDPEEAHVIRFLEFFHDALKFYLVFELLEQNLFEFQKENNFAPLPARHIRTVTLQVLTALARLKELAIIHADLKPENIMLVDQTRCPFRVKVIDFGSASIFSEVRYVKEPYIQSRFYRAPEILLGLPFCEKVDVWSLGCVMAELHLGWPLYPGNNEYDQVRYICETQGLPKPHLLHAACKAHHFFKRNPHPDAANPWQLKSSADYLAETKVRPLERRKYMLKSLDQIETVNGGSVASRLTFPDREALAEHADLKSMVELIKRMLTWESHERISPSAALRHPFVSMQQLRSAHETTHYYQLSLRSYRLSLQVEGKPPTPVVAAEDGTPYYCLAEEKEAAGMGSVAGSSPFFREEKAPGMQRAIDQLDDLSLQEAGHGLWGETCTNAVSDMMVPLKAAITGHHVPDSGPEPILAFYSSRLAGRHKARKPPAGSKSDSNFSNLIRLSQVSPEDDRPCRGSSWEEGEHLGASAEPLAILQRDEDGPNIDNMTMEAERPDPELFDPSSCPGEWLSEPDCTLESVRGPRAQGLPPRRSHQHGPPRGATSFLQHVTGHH
Chain of Fer (P16591 whole entry): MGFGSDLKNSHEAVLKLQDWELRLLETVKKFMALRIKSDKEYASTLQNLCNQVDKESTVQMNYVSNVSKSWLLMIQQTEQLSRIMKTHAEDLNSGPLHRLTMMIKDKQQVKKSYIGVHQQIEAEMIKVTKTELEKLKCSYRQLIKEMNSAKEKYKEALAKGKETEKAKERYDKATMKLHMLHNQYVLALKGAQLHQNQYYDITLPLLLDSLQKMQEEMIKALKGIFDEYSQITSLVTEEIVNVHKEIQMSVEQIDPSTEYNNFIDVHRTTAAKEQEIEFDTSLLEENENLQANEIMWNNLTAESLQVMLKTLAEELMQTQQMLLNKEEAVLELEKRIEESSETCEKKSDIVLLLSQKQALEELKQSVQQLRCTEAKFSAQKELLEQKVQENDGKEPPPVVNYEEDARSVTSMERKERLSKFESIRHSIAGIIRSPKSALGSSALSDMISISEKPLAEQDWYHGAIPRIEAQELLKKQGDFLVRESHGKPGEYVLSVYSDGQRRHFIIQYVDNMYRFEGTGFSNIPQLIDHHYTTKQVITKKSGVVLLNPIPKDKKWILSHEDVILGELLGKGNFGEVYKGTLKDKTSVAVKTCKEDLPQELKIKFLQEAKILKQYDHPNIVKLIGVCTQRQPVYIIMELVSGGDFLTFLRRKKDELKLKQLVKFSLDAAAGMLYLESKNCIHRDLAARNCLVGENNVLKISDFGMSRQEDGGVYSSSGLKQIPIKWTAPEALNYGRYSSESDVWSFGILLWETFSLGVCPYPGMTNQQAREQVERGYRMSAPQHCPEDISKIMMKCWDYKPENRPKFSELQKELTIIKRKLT
Chain of Tyro3 (Q06418 41-890): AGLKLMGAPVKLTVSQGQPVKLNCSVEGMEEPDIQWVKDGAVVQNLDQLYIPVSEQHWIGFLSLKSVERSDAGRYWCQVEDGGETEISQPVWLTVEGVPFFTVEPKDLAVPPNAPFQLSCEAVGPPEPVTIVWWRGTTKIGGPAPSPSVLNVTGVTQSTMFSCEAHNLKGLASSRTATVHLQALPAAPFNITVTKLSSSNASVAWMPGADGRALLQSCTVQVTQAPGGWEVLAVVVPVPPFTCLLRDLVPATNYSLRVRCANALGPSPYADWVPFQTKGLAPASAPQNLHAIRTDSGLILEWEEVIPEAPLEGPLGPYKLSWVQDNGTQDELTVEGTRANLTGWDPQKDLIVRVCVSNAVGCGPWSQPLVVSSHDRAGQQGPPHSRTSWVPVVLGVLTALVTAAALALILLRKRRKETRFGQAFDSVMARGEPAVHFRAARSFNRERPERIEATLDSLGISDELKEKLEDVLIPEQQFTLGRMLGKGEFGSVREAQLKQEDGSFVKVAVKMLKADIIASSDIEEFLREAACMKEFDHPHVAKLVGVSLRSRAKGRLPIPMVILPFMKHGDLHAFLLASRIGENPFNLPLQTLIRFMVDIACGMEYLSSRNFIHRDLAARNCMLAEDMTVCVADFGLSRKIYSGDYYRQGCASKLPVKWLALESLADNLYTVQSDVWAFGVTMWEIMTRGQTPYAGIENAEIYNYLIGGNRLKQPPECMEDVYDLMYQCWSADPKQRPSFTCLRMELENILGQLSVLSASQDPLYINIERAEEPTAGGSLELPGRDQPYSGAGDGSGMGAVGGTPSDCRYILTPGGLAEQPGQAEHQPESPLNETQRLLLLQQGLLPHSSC
Chain of FLT3 (P36888 27-993): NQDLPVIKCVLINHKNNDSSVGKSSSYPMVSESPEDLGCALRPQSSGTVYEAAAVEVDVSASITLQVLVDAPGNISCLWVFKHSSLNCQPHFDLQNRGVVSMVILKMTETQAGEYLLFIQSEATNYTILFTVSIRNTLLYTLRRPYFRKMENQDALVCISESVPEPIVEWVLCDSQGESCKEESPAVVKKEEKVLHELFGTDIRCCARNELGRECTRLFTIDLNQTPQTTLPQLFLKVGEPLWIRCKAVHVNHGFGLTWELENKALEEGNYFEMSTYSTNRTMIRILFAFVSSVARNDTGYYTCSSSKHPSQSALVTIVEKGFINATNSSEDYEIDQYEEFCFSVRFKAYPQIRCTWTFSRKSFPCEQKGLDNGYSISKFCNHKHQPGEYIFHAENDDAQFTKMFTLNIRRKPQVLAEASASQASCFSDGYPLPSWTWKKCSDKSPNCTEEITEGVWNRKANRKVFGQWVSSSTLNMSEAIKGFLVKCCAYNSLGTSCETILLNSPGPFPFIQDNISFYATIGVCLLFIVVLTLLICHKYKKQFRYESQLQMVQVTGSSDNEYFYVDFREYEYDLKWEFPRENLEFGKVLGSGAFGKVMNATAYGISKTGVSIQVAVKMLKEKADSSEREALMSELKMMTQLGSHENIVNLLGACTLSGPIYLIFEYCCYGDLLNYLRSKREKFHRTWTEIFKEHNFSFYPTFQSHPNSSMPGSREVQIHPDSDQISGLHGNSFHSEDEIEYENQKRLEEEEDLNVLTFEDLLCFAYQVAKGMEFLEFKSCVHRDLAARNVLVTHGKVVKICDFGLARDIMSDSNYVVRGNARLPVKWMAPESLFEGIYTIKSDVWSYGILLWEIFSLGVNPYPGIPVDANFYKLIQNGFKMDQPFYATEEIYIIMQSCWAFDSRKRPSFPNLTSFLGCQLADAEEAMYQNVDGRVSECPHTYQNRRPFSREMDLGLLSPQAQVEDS
Chain of Yes (P07947 whole entry): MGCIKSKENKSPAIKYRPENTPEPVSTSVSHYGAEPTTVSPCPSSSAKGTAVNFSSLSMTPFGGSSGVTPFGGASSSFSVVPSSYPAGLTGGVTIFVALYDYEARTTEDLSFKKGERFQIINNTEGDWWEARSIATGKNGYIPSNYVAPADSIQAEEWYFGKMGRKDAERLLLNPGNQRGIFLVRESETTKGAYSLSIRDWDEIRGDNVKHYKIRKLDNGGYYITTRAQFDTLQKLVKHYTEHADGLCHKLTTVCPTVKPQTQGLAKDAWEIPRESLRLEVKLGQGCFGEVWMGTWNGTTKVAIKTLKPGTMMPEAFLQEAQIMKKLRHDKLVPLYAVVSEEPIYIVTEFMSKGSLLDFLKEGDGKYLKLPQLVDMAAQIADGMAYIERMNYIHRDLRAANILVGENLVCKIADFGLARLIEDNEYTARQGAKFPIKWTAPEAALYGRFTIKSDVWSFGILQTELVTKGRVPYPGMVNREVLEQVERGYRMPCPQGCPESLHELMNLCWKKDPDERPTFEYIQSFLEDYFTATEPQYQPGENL

Consider `Cc1c(C(=O)Nc2ccc(Oc3ccnc4cc(OCC(C)(C)O)ccc34)c(F)c2)c(=O)n(-c2ccccc2)n1C` [CT053], for which the tumour growth inhibition (TGI) in [1] (1 mg/kg once per day oral gavage) was found to be 32%; in [1] (setting [14]), 87%; in data set [2] (setting [14]) it was 31%; in [2] (10 mg/kg once per day oral gavage) it was 85%; in data set [2] (20 mg/kg once per day oral gavage) it was 97%. Moreover, the concentration for half-maximal inhibition (IC50) in data set [3] was 330 nM; in data set [4], 6880 nM; in [5] it was greater than 10000 nM; in data set [6], greater than 10000 nM; in data set [7] it was 310 nM; in data set [8], 180 nM. In addition, the IC50 in data set [9] is 8.6 nM; in [10], 150 nM; in [11], 110 nM; in [13], greater than 10000 nM. Also, the “PK profile versus dose” value was “linear PK profile” in data set [12] (multiple doses, 60-100 mg) and “general linear PK profile” in data set [12] (single oral dose, 15 to 150 mg).
